Structures can show the parent of a compound that is named as a salt. Where two headings read alike, the source gives them in different places.
Experiments:
5HT2A sensor [1] = test: 5HT2A sensor assay, antagonist mode (sLight1.3s HEK293T stable line); type: cell-based; settings: relative to 5-HT at 100 nM; for 5HT2A Antagonist mean @ 100 nM (%): 100 nM compound; for 5HT2A Antagonist mean @ 10 μM (%): 10 μM compound; for 5HT2A Antagonist mean @ 100 μM (%): 100 μM compound
Outline: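 Inactivation score is computed from membrane dFF as (dFF(compound+5HT)−dFF(5HT))/dFF(5HT), with HBSS-only fluorescence as Fapo. Final concentrations: 5-HT 100 nM added first, then compound at 100 nM, 10 μM or 100 μM in 0.1% DMSO. Triplicates; FITC imaging, 5 fields per well.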

5HT2A sensor [2] = test: 5HT2A sensor assay, agonist mode (sLight1.3s HEK293T stable line); type: cell-based; settings: percent relative to 5-HT at 100 uM; for 5HT2A Agonist mean @ 100 nM (%): 100 nM compound; for 5HT2A Agonist mean @ 10 μM (%): 10 μM compound; for 5HT2A Agonist mean @ 100 μM (%): 100 μM compound
Outline: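 Agonist mode in HEK293T cells stably expressing the sLight1.3 5HT2A sensor, washed into HBSS; compounds at final 100 μM, 10 μM and 100 nM (0.1% DMSO), triplicate wells. Membrane fluorescence (ex 460, em 512-542 nm) imaged before and after addition; dFF=(Fsat−Fapo)/Fapo, expressed as percent activation (DMSO=0, 5HT=100).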

rat cortical neurons = test: Neurite outgrowth assay; type: cell-based; settings: Cortical neurone, 1 hour treatment at DIV 4, analysed DIV 7, fold vs DMSO control
Outline: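 Embryonic day 18 rat cortical neurons, 20,000 cells/well in Neurobasal/B27, were exposed at DIV 4 to 10 μM compound for 1 hour, then washed out. At DIV 7, β-III-tubulin immunostaining and automated imaging gave neurite length, branch points, root and extremity counts, reported as fold-change versus DMSO; triplicates.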

5HT2A = target: T1, 5HT2A (Homo sapiens, UniProt P28223); test: Calcium flux assay (Calcium secondary messenger pathway); type: cell-based; settings: agonist mode
T1 construct: expressed in transfected cells
T1 sequence (P28223 whole entry): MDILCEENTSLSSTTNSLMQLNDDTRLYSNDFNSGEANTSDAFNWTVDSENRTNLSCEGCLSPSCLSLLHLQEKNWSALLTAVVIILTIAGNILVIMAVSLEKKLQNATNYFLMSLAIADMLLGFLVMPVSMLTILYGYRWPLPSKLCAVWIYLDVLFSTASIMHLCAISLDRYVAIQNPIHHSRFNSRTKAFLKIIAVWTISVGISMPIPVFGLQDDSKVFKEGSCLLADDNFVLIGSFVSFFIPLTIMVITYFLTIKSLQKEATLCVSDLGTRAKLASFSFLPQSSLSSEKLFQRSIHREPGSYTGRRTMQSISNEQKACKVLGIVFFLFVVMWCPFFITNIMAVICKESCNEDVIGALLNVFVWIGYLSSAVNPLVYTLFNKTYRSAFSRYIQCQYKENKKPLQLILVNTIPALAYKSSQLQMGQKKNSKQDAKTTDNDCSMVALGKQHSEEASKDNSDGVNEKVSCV
Outline: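 Gq-coupled calcium mobilization in cells stably expressing 5HT2A, loaded 30–60 min at 37 °C with calcium-sensitive dye in HBSS/20 mM Hepes with 2.5 mM probenecid. Compound added 5 s into a 2-min FLIPR Tetra fluorescence read at room temperature; % activity relative to vehicle and maximal control-ligand RFU.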

[3] = read-out: Neurite Average Length @ 10 μM
[4] = read-out: Neurite Branch Points: @ 10 μM

Row | SMILES | melting point [°C] | 5HT2A Antagonist mean @ 100 nM (%) (5HT2A sensor [1]) | 5HT2A Antagonist mean @ 10 μM (%) (5HT2A sensor [1]) | 5HT2A Antagonist mean @ 100 μM (%) (5HT2A sensor [1]) | 5HT2A Agonist mean @ 100 nM (%) (5HT2A sensor [2]) | 5HT2A Agonist mean @ 10 μM (%) (5HT2A sensor [2]) | 5HT2A Agonist mean @ 100 μM (%) (5HT2A sensor [2]) | fold induction at 10 µM (rat cortical neurons; [3]) | fold induction at 10 µM (rat cortical neurons; [4]) | EC50 (5HT2A) [µM]
1 | CN(C)CCn1ccc2c(OCc3ccccc3)cccc21 (as salt: fumarate) [Example 8, 2-(4-(benzyloxy)-1H-indol-1-yl)-N,N-dimethylethan-1-amine] | 145 to 150 |  |  |  |  |  |  |  |  | 
2 | CN(C)CCn1ccc2cc(OCc3ccccc3)ccc21 (as salt: fumarate) [Example 9, 2-(5-(benzyloxy)-1H-indol-1-yl)-N,N-dimethylethan-1-amine] | 133 to 135 |  |  |  |  |  |  |  |  | 
3 | CN(C)CCn1ccc2c(F)cccc21 (as salt: fumarate) [Example 12, 2-(4-fluoro-1H-indol-1-yl)-N,N-dimethylethan-1-amine] | 145 to 149 |  |  |  |  |  |  |  |  | 
4 | CN(C)CCn1ccc2cc(F)ccc21 (as salt: fumarate) [Example 13, 2-(5-fluoro-1H-indol-1-yl)-N,N-dimethylethan-1-amine] | 145 to 148 |  |  |  |  |  |  |  |  | 
5 | CN(C)CCn1ccc2cccc(F)c21 (as salt: fumarate) [Example 15, 2-(7-fluoro-1H-indol-1-yl)-N,N-dimethylethan-1-amine] | 168 to 170 |  |  |  |  |  |  |  |  | 
6 | CN(C)CCn1ccc2cc(F)c(F)cc21 (as salt: fumarate) [Example 17, 2-(5,6-difluoro-1H-indol-1-yl)-N,N-dimethylethan-1-amine] | 162 to 165 |  |  |  |  |  |  |  |  | 
7 | CN(C)CCn1ccc2c(F)cc(F)cc21 (as salt: fumarate) [Example 18, 2-(4,6-difluoro-1H-indol-1-yl)-N,N-dimethylethan-1-amine] | 141 to 145 |  |  |  |  |  |  |  |  | 
8 | CN(C)CCn1cccc1 (as salt: fumarate) [Example 23, N,N-dimethyl-2-(1H-pyrrol-1-yl)ethan-1-amine] | 174 to 180 |  |  |  |  |  |  |  |  | 
9 | CN(C)CCc1cn(C)c2ccccc12 (as salt: fumarate) [Example 27, N,N-dimethyl-2-(1-methyl-1H-indol-3-yl)ethan-1-amine] | 167 to 170 |  |  |  |  |  |  |  |  | 
10 | C[C@H](Cn1ccc2cc(F)c(F)cc21)N(C)C [Example 68, (R)-1-(5,6-difluoro-1H-indol-1-yl)-N,N-dimethylpropan-2-amine] |  | B (inhibits 5HT response by 75% to 100%) | A (inhibits 5HT response by >100%) | A (inhibits 5HT response by >100%) | B (does not activate 5HT2A sensor assay in agonist mode) | B (does not activate 5HT2A sensor assay in agonist mode) | A (activates 5HT2A sensor assay in agonist mode) | 1.5 to 3 | > 3 | > 10
11 | C[C@H](Cn1ccc2cc(F)cc(F)c21)N(C)C [Example 69, (R)-1-(5,7-difluoro-1H-indol-1-yl)-N,N-dimethylpropan-2-amine] |  | B (inhibits 5HT response by 75% to 100%) | B (inhibits 5HT response by 75% to 100%) | B (inhibits 5HT response by 75% to 100%) | B (does not activate 5HT2A sensor assay in agonist mode) | B (does not activate 5HT2A sensor assay in agonist mode) | A (activates 5HT2A sensor assay in agonist mode) | 1.5 to 3 | > 3 | > 10
12 | COc1cc2c(ccn2C[C@@H](C)N(C)C)cc1F [Example 70, (R)-1-(5-fluoro-6-methoxy-1H-indol-1-yl)-N,N-dimethylpropan-2-amine] |  | B (inhibits 5HT response by 75% to 100%) | B (inhibits 5HT response by 75% to 100%) | A (inhibits 5HT response by >100%) | B (does not activate 5HT2A sensor assay in agonist mode) | B (does not activate 5HT2A sensor assay in agonist mode) | B (does not activate 5HT2A sensor assay in agonist mode) | 1.5 to 3 | 1.5 to 3 | < 10
13 | Cc1cc2cc(F)ccc2n1C[C@@H](C)N(C)C [Example 73, (R)-1-(5-fluoro-2-methyl-1H-indol-1-yl)-N,N-dimethylpropan-2-amine] |  | B (inhibits 5HT response by 75% to 100%) | B (inhibits 5HT response by 75% to 100%) | A (inhibits 5HT response by >100%) | B (does not activate 5HT2A sensor assay in agonist mode) | B (does not activate 5HT2A sensor assay in agonist mode) | A (activates 5HT2A sensor assay in agonist mode) | 1.5 to 3 | 1.5 to 3 | > 10
14 | Cc1cn(C[C@@H](C)N(C)C)c2ccc(F)cc12 [Example 74, (R)-1-(5-fluoro-3-methyl-1H-indol-1-yl)-N,N-dimethylpropan-2-amine] |  | A (inhibits 5HT response by >100%) | A (inhibits 5HT response by >100%) | B (inhibits 5HT response by 75% to 100%) | B (does not activate 5HT2A sensor assay in agonist mode) | B (does not activate 5HT2A sensor assay in agonist mode) | B (does not activate 5HT2A sensor assay in agonist mode) | 1.5 to 3 | 1.5 to 3 | > 10
15 | CC[C@H](Cn1ccc2cc(OC)ccc21)N(C)C [Example 75, (R)-1-(5-methoxy-1H-indol-1-yl)-N,N-dimethylbutan-2-amine] |  | A (inhibits 5HT response by >100%) | A (inhibits 5HT response by >100%) | A (inhibits 5HT response by >100%) | B (does not activate 5HT2A sensor assay in agonist mode) | B (does not activate 5HT2A sensor assay in agonist mode) | B (does not activate 5HT2A sensor assay in agonist mode) | < 1.5 | < 1.5 | > 10
16 | CC[C@@H](Cn1ccc2cc(OC)ccc21)N(C)C [Example 76, (S)-1-(5-methoxy-1H-indol-1-yl)-N,N-dimethylbutan-2-amine] |  | A (inhibits 5HT response by >100%) | A (inhibits 5HT response by >100%) | A (inhibits 5HT response by >100%) | B (does not activate 5HT2A sensor assay in agonist mode) | B (does not activate 5HT2A sensor assay in agonist mode) | B (does not activate 5HT2A sensor assay in agonist mode) | 1.5 to 3 | 1.5 to 3 | > 10
17 | COc1ccc2c(ccn2CCN2CC3(COC3)C2)c1 [Example 84, 6-(2-(5-methoxy-1H-indol-1-yl)ethyl)-2-oxa-6-azaspiro[3.3]heptane] |  | B (inhibits 5HT response by 75% to 100%) | B (inhibits 5HT response by 75% to 100%) | B (inhibits 5HT response by 75% to 100%) | B (does not activate 5HT2A sensor assay in agonist mode) | B (does not activate 5HT2A sensor assay in agonist mode) | A (activates 5HT2A sensor assay in agonist mode) | 1.5 to 3 | 1.5 to 3 | > 10

Reference: patent publication US11254640B2, “N-substituted indoles and other heterocycles for treating brain disorders” (The Regents of the University of California, priority 2019, dated 2022)
